Some results are limits rather than exact numbers.

Broadly, the EC50 is the concentration at which the effect is half-maximal.

The test has as its system HEK293T cells carrying the ATF4 luciferase reporter. The experiment in a line: ATF4-Luc assay (in vitro model of VWMD). In kind it is cell-based. As to conditions: Homo sapiens, HEK-293T; HEK293T cells with ATF4 5'-UTR firefly luciferase reporter; 1 μg/mL tunicamycin; 7 hours; One Glo luminescence. The procedure: In order to test exemplary compounds of the invention in a cellular context, a stable VWMD cell line was first constructed. The ATF4 reporter was prepared by fusing the human full-length ATF4 5′-UTR (NCBI Accession No. BC022088.2) in front of the firefly luciferase (FLuc) coding sequence lacking the initiator methionine as described in Sidrauski et al (eLife 2013). The construct was used to produce recombinant retroviruses using standard methods and the resulting viral supernatant was used to transduce HEK293T cells, which were then subsequently selected with puromycin to generate a stable cell line.
HEK293T cells carrying the ATF4 luciferase reporter were plated on polylysine coated 384-well plates (Greiner Bio-one) at 30,000 cells per well. Cells were treated the next day with 1 μg/mL tunicamycin and 200 nM of a compound of Formula (I) for 7 hours. Luminescence was measured using One Glo (Promega) as specified by the manufacturer. Cells were maintained in DMEM with L-glutamine supplemented with 10% heat-inactivated FBS (Gibco) and Antibiotic-Antimycotic solution (Gibco).
Table 2 below summarizes the EC50 data obtained using the ATF4-Luc assay for exemplary compounds of the invention.
(In general: Reporter assays use an easily measured gene product as a stand-in for the process of interest.)
For `O=C(COc1ccc(Cl)c(F)c1)NC12CCC(n3nccc3-c3ccc(Cl)c(F)c3)(CC1)C[C@@H]2O` [Compound 112, 2-(4-chloro-3-fluorophenoxy)-N-{(2S)-4-[5-(4-chloro-3-fluorophenyl)-1H-pyrazol-1-yl]-2-hydroxybicyclo[2.2.2]octan-1-yl}acetamide], the EC50 was in the range of 500 to 2000 nM.
For the compound `O=C(COc1ccc(Cl)c(F)c1)NC12CCC(c3nnc(-c4ccc(Cl)c(F)c4)o3)(CC1)[C@H](O)C2` (single isomer, unassigned) [Compound 101], the EC50 was less than 10 nM.
To `O=C(COc1ccc(Cl)c(F)c1)NC12CCC(c3nc(-c4ccc(Cl)c(F)c4)no3)(CC1)C(=O)C2` [Compound 105, 2-(4-chloro-3-fluorophenoxy)-N-{4-[3-(4-chloro-3-fluorophenyl)-1,2,4-oxadiazol-5-yl]-3-oxobicyclo[2.2.2]octan-1-yl}acetamide] belongs less than 10 nM; to `O=C(COc1ccc(Cl)c(F)c1)NC12CCC(c3nnc(-c4ccc(Cl)c(F)c4)o3)(CC1)C(=O)C2` [Compound 106, 2-(4-chloro-3-fluorophenoxy)-N-{4-[5-(4-chloro-3-fluorophenyl)-1,3,4-oxadiazol-2-yl]-3-oxobicyclo[2.2.2]octan-1-yl}acetamide], less than 10 nM; to `O=C(COc1ccc(Cl)c(F)c1)NC12CCC(c3nnc(-c4ccc(Cl)c(F)c4)o3)(CC1)[C@@H](O)C2` [Compound 100, 2-(4-chloro-3-fluorophenoxy)-N-{(3S)-4-[5-(4-chloro-3-fluorophenyl)-1,3,4-oxadiazol-2-yl]-3-hydroxybicyclo[2.2.2]octan-1-yl}acetamide], less than 10 nM.
The value for `O=C(COc1ccc(Cl)c(F)c1)NC12CCC(c3nc(-c4ccc(Cl)c(F)c4)no3)(CC1)CC2=O` [Compound 111, 2-(4-chloro-3-fluorophenoxy)-N-{4-[3-(4-chloro-3-fluorophenyl)-1,2,4-oxadiazol-5-yl]-2-oxobicyclo[2.2.2]octan-1-yl}acetamide] was more than 2000 nM; that for `O=C(NC12CCC(c3nc(-c4ccc(Cl)c(F)c4)no3)(CC1)C(O)C2)c1cc(C(F)F)no1` (stereo not shown) [Compound 121, N-{4-[3-(4-chloro-3-fluorophenyl)-1,2,4-oxadiazol-5-yl]-3-hydroxybicyclo[2.2.2]octan-1-yl}-3-(difluoromethyl)-1,2-oxazole-5-carboxamide] was 500 to 2000 nM; that for `O=C(COc1ccc(Cl)c(F)c1)NC12CCC(c3ncc(-c4ccc(Cl)cc4)[nH]3)(CC1)[C@@H](O)C2` [Compound 110, 2-(4-chloro-3-fluorophenoxy)-N-{(3S)-4-[5-(4-chlorophenyl)-1H-imidazol-2-yl]-3-hydroxybicyclo[2.2.2]octan-1-yl}acetamide] was less than 10 nM.
To `O=C(COc1ccc(Cl)c(F)c1)NC12CCC(n3ccc(-c4ccc(Cl)c(F)c4)c3)(CC1)C[C@@H]2O` [Compound 113, 2-(4-chloro-3-fluorophenoxy)-N-{(2S)-4-[3-(4-chloro-3-fluorophenyl)-1H-pyrrol-1-yl]-2-hydroxybicyclo[2.2.2]octan-1-yl}acetamide] belongs less than 10 nM.
For `Cn1c(-c2ccc(Cl)c(F)c2)cnc1C12CC(NC(=O)COc3ccc(Cl)c(F)c3)(C1)C2` [Compound 117, 2-(4-chloro-3-fluorophenoxy)-N-{3-[5-(4-chloro-3-fluorophenyl)-1-methyl-1H-imidazol-2-yl]bicyclo[1.1.1]pentan-1-yl}acetamide], the EC50 fell in the range of 10 to 50 nM.
To `O=C(COc1ccc(Cl)c(Cl)c1)NC12CCC(n3ccc(-c4ccc(Cl)c(F)c4)c3)(CC1)C[C@@H]2O` [Compound 115, N-{(2S)-4-[3-(4-chloro-3-fluorophenyl)-1H-pyrrol-1-yl]-2-hydroxybicyclo[2.2.2]octan-1-yl}-2-(3,4-dichlorophenoxy)acetamide] belongs less than 10 nM.
The value for `O=C(COc1ccc(Cl)c(F)c1)NC12CCC(c3nnc(-c4ccc(Cl)c(F)c4)o3)(CC1)C[C@@H]2O` (single isomer, unassigned) [Compound 123] was less than 10 nM.
To `O=C(NC12CCC(c3nc(-c4cccc(F)c4)no3)(CC1)C(O)C2)c1cc(C(F)F)no1` (stereo not shown) [Compound 120, 3-(difluoromethyl)-N-{4-[3-(3-fluorophenyl)-1,2,4-oxadiazol-5-yl]-3-hydroxybicyclo[2.2.2]octan-1-yl}-1,2-oxazole-5-carboxamide] belongs more than 2000 nM; to `O=C(COc1ccc(Cl)c(F)c1)NC12CCC(c3nnc(-c4ccc(Cl)c(F)c4)o3)(CC1)CC2O` (stereo not shown) [Compound 108, 2-(4-chloro-3-fluorophenoxy)-N-{4-[5-(4-chloro-3-fluorophenyl)-1,3,4-oxadiazol-2-yl]-2-hydroxybicyclo[2.2.2]octan-1-yl}acetamide], less than 10 nM.
For `O=C(COc1ccc(Cl)c(F)c1)NC12CCC(c3nnc(-c4ccc(Cl)c(F)c4)o3)(CC1)C(O)C2` (stereo not shown) [Compound 107, 2-(4-chloro-3-fluorophenoxy)-N-{4-[5-(4-chloro-3-fluorophenyl)-1,3,4-oxadiazol-2-yl]-3-hydroxybicyclo[2.2.2]octan-1-yl}acetamide], the EC50 was less than 10 nM.
Regarding `O=C(COc1ccc(Cl)c(F)c1)NC12CCC(c3nc(-c4ccc(Cl)c(F)c4)no3)(CC1)[C@@H](O)C2` [Compound 104, 2-(4-chloro-3-fluorophenoxy)-N-{(3S)-4-[3-(4-chloro-3-fluorophenyl)-1,2,4-oxadiazol-5-yl]-3-hydroxybicyclo[2.2.2]octan-1-yl}acetamide], the half-maximal effective concentration (EC50) is less than 10 nM.
The value for `O=C(COc1ccc(Cl)c(F)c1)NC12CCC(c3nc(-c4ccc(Cl)c(F)c4)no3)(CC1)[C@H](O)C2` [Compound 103, 2-(4-chloro-3-fluorophenoxy)-N-{(3R)-4-[3-(4-chloro-3-fluorophenyl)-1,2,4-oxadiazol-5-yl]-3-hydroxybicyclo[2.2.2]octan-1-yl}acetamide] was 10 to 50 nM.
To `COc1ncc(-c2nnc(C34CCC(NC(=O)COc5ccc(Cl)c(F)c5)(CC3)C(O)C4)o2)cn1` (stereo not shown) [Compound 124, 2-(4-chloro-3-fluorophenoxy)-N-{2-hydroxy-4-[5-(2-methoxypyrimidin-5-yl)-1,3,4-oxadiazol-2-yl]bicyclo[2.2.2]octan-1-yl}acetamide] belongs more than 2000 nM; to `O=C(COc1ccc(Cl)c(F)c1)NC12CC(c3ncc(-c4ccc(Cl)c(F)c4)[nH]3)(C1)C2` [Compound 116, 2-(4-chloro-3-fluorophenoxy)-N-{3-[5-(4-chloro-3-fluorophenyl)-1H-imidazol-2-yl]bicyclo[1.1.1]pentan-1-yl}acetamide], less than 10 nM; to `O=C(COc1ccc(Cl)c(F)c1)NC12CCC(c3ncc(-c4ccc(Cl)c(F)c4)[nH]3)(CC1)[C@@H](O)C2` [Compound 119, 2-(4-chloro-3-fluorophenoxy)-N-{(3S)-4-[5-(4-chloro-3-fluorophenyl)-1H-imidazol-2-yl]-3-hydroxybicyclo[2.2.2]octan-1-yl}acetamide], less than 10 nM.
The value for `O=C(COc1ccc(Cl)c(F)c1)NC12CCC(c3nnc(-c4ccc(Cl)c(F)c4)o3)(CC1)C[C@H]2O` (single isomer, unassigned) [Compound 122] was less than 10 nM; that for `O=C(COc1ccc(Cl)c(F)c1)NC12CCC(c3ncc(-c4ccc(Cl)cc4)o3)(CC1)[C@H](O)C2` [Compound 114, 2-(4-chloro-3-fluorophenoxy)-N-{(3R)-4-[5-(4-chlorophenyl)-1,3-oxazol-2-yl]-3-hydroxybicyclo[2.2.2]octan-1-yl}acetamide] was less than 10 nM; that for `O=C(COc1ccc(Cl)c(F)c1)NC12CCC(n3ccc(-c4ccc(Cl)cc4)c3)(CC1)CC2O` (stereo not shown) [Compound 109, 2-(4-chloro-3-fluorophenoxy)-N-{4-[3-(4-chlorophenyl)-1H-pyrrol-1-yl]-2-hydroxybicyclo[2.2.2]octan-1-yl}acetamide] was 10 to 50 nM.
As to `O=C(COc1ccc(Cl)c(F)c1)NC12CCC(c3ncc(-c4ccc(Cl)cc4)[nH]3)(CC1)[C@H](O)C2` [Compound 118, 2-(4-chloro-3-fluorophenoxy)-N-{(3R)-4-[5-(4-chlorophenyl)-1H-imidazol-2-yl]-3-hydroxybicyclo[2.2.2]octan-1-yl}acetamide], the EC50 was less than 10 nM.
Consider `O=C(COc1ccc(Cl)c(F)c1)NC12CCC(n3ccc(-c4ccc(Cl)c(F)c4)c3)(CC1)CC2O` (stereo not shown) [Compound 102, 2-(4-chloro-3-fluorophenoxy)-N-{4-[3-(4-chloro-3-fluorophenyl)-1H-pyrrol-1-yl]-2-hydroxybicyclo[2.2.2]octan-1-yl}acetamide], for which the EC50 is less than 10 nM.
